Data reported in patent US11278513B2, “Diethylamino compounds for use as local anesthetics” (Zhejiang Yuejia Pharmaceuticals Co., Ltd, priority 2017, dated 2022).
Values joined by “and” are separate entries in the source; they are usually repeats but may differ in a detail not shown here. Equal entries are not always repeated. Where two headings read alike, the source gives them in different places.

What was measured:
[1] = system: corneal reflex in rabbits; experiment: Anesthetic effect on the corneal surface of New Zealand rabbits (corneal reflex inhibition, CRI); type: in vivo, New Zealand white rabbits
Description: New Zealand white rabbits were weighed. […] A single administration of 3 mg/animal (100 μL) was performed on the surface of the eyeball, and the drug concentration was 3% (m/V) in each case (wherein a Tris solution was added to aspirin to facilitate dissolution). Each group included 12 rabbits. […] An equal volume of normal saline was dropped onto the right eyeball as the self-negative control. […] After 30 minutes of administration, it was tested every 15 minutes. After the corneal reflex returned to the pre-dose level, the test was stopped. By comparing the corneal reflex on the administration side and the self-negative control side, the effect of the compound on the corneal reflex after administration was judged. Corneal reflex inhibition (CRI) was used to evaluate the effect of drugs on corneal reflex. CRI was calculated as follows: […]

Nav1.7 [2] = target: T1, Nav1.7 (Homo sapiens, UniProt Q15858); experiment: Inhibition of Nav1.7 channel current in CHO cells stably expressing Nav1.7; type: cell-based; conditions: CHO cells stably expressing Nav1.7, channel current
T1 construct: expressed in transfected cells

Nav1.8 [3] = target: T2, Nav1.8 (Homo sapiens, UniProt Q9Y5Y9); experiment: Inhibition of Nav1.8 channel current in HEK cells stably expressing Nav1.8; type: cell-based; conditions: HEK cells stably expressing Nav1.8, channel current
T2 construct: expressed in transfected cells

[4] = system: rat dorsal root ganglion (DRG) neurons; experiment: Patch clamp inhibition of action potential of acutely isolated rat DRG neurons; type: cell-based; conditions: DRG neuron
From the text: In addition, the inventor used acutely isolated rat dorsal root ganglion (DRG) neurons as the experimental object, using patch clamp technology to investigate the inhibition effect of the compound represented by Formula 1 of the present invention on the neuronal excitability of the dorsal root ganglion.

[5] = Physical and chemical properties (repose angle, solubility, acidity, dissociation constant); type: physicochemical
[6] = Stability of aqueous solution at 2-8° C. (HPLC); type: physicochemical; conditions: for Main Drug, %: aqueous solution 5 g in 50 mL sterile water; for Main Drug, % / Salicylic acid, % (impurity) / Salicylic acid-(2-diethylaminoethyl ester) hydrochloride, % (impurity) / Acetylsalicylic acid, % (impurity): 2-8° C.; for Salicylic acid, % (impurity) / Salicylic acid-(2-diethylaminoethyl ester) hydrochloride, % (impurity) / Acetylsalicylic acid, % (impurity): aqueous solution
Nav1.7 [7] = target: T1, Nav1.7; conditions: reported by a literature; cited from earlier work
Nav1.8 [8] = target: T2, Nav1.8; conditions: reported by a literature; cited from earlier work
[9] = 3% (m/V), 100 μL on left eyeball, 0 min, mean ± SD
[10] = 3% (m/V), 100 μL on left eyeball, 5 min after administration, mean ± SD
[11] = 3% (m/V), 100 μL on left eyeball, 10 min after administration, mean ± SD
[12] = 3% (m/V), 100 μL on left eyeball, 15 min after administration, mean ± SD
[13] = 3% (m/V), 100 μL on left eyeball, 20 min after administration, mean ± SD
[14] = 3% (m/V), 100 μL on left eyeball, 25 min after administration, mean ± SD
[15] = 3% (m/V), 100 μL on left eyeball, 30 min after administration, mean ± SD
[16] = 3% (m/V), 100 μL on left eyeball, 45 min after administration, mean ± SD
[17] = 3% (m/V), 100 μL on left eyeball, 60 min after administration, mean ± SD
[18] = ophthalmic administration, 3% (m/V), rabbits

T2 sequence (Q9Y5Y9 whole entry): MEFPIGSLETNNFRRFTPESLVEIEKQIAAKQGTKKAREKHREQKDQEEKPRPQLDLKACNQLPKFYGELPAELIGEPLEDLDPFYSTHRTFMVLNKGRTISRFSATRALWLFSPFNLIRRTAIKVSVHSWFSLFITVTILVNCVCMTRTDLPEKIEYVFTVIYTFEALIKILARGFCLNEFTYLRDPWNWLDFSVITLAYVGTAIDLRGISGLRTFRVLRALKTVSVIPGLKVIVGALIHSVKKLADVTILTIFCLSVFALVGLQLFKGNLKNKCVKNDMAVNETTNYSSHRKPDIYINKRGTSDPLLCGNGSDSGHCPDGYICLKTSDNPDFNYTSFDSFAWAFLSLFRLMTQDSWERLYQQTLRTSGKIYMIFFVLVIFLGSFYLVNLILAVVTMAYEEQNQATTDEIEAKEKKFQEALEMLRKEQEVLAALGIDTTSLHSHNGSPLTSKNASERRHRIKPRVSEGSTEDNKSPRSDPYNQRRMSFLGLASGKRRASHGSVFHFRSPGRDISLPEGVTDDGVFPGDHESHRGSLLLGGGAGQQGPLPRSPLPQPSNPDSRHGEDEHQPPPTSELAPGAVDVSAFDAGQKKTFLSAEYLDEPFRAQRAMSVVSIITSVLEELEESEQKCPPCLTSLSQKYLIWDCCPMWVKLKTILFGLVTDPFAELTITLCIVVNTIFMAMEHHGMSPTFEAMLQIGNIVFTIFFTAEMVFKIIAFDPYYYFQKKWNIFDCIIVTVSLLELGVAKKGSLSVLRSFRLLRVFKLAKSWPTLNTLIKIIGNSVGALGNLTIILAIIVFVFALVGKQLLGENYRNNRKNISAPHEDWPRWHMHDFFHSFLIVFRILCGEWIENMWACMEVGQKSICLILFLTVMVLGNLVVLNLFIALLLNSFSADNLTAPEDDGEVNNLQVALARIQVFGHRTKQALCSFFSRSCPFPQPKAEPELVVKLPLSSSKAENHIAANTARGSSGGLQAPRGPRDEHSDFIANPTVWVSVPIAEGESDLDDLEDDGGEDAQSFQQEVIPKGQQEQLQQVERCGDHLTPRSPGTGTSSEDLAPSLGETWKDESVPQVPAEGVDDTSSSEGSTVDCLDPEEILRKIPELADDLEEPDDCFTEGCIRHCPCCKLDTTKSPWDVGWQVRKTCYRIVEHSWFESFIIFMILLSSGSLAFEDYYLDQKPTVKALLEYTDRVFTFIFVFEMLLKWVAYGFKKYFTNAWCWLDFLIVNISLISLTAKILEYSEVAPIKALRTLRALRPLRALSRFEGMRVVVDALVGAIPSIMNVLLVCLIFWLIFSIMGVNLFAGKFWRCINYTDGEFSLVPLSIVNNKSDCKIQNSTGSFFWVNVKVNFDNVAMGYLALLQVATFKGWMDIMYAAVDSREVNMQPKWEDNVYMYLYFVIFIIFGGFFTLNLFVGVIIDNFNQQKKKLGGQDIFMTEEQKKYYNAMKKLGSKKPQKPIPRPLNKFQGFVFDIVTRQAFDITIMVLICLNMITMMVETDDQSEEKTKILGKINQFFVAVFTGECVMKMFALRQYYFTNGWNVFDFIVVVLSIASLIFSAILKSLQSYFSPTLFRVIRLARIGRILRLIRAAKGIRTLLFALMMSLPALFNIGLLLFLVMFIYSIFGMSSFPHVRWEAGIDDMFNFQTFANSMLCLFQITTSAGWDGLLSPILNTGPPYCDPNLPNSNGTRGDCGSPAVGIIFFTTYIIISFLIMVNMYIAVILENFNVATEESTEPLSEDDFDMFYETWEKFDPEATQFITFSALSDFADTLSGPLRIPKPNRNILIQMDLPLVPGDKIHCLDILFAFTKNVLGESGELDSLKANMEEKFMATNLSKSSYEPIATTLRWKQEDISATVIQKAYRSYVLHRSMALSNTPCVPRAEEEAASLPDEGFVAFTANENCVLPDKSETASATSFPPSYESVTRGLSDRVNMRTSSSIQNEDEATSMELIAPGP
T1 sequence (Q15858 whole entry): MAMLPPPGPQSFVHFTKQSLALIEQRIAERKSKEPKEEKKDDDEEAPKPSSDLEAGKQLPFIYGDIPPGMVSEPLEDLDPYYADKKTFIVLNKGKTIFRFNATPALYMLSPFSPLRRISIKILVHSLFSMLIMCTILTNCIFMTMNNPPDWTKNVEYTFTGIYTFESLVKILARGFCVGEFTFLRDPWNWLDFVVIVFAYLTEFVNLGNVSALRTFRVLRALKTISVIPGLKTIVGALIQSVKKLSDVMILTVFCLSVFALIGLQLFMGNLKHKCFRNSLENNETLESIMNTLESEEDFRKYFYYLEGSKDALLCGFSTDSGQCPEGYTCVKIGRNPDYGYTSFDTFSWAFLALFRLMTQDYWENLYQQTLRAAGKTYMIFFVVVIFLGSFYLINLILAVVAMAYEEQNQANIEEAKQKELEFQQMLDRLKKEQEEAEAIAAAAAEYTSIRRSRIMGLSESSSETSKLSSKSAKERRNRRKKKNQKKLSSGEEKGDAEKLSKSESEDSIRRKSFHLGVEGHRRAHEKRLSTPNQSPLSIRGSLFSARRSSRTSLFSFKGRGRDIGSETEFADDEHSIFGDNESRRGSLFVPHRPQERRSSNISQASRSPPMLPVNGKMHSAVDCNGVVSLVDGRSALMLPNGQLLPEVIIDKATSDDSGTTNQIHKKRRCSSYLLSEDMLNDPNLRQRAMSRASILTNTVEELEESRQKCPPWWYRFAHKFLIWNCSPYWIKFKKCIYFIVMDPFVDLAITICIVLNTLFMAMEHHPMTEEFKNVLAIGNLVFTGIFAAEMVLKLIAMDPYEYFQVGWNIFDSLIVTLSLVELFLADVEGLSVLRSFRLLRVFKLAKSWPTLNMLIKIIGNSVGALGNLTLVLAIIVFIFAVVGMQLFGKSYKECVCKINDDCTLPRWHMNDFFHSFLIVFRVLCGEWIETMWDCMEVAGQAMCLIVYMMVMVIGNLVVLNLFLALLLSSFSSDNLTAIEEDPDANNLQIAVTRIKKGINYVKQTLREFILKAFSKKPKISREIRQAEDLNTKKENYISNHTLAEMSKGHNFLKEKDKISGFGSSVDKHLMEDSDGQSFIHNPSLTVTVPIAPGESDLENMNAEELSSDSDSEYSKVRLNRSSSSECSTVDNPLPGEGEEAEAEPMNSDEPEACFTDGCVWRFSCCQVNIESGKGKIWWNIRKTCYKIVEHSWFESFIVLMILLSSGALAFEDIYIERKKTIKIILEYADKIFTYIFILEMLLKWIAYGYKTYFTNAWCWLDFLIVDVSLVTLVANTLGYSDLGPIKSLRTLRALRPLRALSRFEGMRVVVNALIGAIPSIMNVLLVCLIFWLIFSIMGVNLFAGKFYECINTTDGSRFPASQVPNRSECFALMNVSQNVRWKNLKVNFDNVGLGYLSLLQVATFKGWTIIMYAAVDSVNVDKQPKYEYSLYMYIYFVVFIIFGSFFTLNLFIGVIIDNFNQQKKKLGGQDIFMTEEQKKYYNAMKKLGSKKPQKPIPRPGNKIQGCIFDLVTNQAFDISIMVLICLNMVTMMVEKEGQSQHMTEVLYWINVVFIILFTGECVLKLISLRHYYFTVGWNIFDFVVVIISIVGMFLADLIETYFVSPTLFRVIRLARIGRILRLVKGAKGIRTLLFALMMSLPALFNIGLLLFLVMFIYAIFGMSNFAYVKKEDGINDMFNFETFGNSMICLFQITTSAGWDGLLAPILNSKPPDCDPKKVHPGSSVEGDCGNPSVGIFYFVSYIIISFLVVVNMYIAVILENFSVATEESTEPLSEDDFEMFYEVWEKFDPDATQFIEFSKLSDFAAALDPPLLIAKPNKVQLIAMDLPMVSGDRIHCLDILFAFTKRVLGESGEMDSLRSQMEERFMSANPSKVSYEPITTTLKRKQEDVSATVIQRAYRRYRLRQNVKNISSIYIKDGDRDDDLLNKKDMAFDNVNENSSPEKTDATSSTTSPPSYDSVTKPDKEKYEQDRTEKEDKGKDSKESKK

Structure (SMILES): CC(=O)Oc1ccccc1C(=O)O [Aspirin, aspirin]
- CRI (%) [1, 9]: 0.0 ± 0.0%
- CRI (%) [1, 10]: 0.0 ± 0.0%
- CRI (%) [1, 11]: 0.0 ± 0.0%
- CRI (%) [1, 12]: 0.0 ± 0.0%
- CRI (%) [1, 13]: 0.0 ± 0.0%
- CRI (%) [1, 14]: 0.0 ± 0.0%
- CRI (%) [1, 15]: 0.0 ± 0.0%
- CRI (%) [1, 16]: 0.0 ± 0.0%
- CRI (%) [1, 17]: 0.0 ± 0.0%
- CRI (%) ([1]; no time point stated): 0.0±0.0%
- local anesthetic effect (in words) [1, 18]: no local anesthetic effect at all

Structure (SMILES): CCN(CC)CCOC(=O)c1ccccc1OC(C)=O.Cl [2-(diethylamino)-ethyl-2-acetoxybenzoate hydrochloride]
- IC50 (Nav1.7 [2]): 17.7 µM
- IC50 (Nav1.8 [3]): 74.6 µM
- IC50 [4]: 34.6 µM
- Dissociation constant [5]: 8.82
- Repose angle [5]: 42°
- Acidity: pH value of the 2% aqueous solution ([5]; 2% aqueous solution at 25 ± 0.5° C.): product at 25 ± 0.5 °C is 4.0-6.0
- Solubility in acetone ([5]; acetone): slightly soluble
- Solubility in ether ([5]; ether): insoluble
- Solubility in ethyl acetate ([5]; ethyl acetate): insoluble
- Solubility in water ([5]; water): extremely soluble
- Main Drug, % ([6]; month 0): 99.48%
- Main Drug, % ([6]; month 0.5): 99.32%
- Main Drug, % ([6]; month 1): 97.59%
- Main Drug, % ([6]; month 2): 94.86%
- Main Drug, % ([6]; month 3, hydrochloride): 86% and 86.55%
- Salicylic acid, % (impurity) ([6]; month 0): 0.0028%
- Salicylic acid-(2-diethylaminoethyl ester) hydrochloride, % (impurity) ([6]; month 0): 0.51%
- Salicylic acid, % (impurity) ([6]; month 0.5): 0.0035%
- Salicylic acid-(2-diethylaminoethyl ester) hydrochloride, % (impurity) ([6]; month 0.5): 0.67%
- Acetylsalicylic acid, % (impurity) ([6]; month 1): 0.018%
- Salicylic acid, % (impurity) ([6]; month 1): 0.0044%
- Salicylic acid-(2-diethylaminoethyl ester) hydrochloride, % (impurity) ([6]; month 1): 2.38%
- Acetylsalicylic acid, % (impurity) ([6]; month 2): 0.033%
- Salicylic acid, % (impurity) ([6]; month 2): 0.012%
- Salicylic acid-(2-diethylaminoethyl ester) hydrochloride, % (impurity) ([6]; month 2): 5.09%
- Acetylsalicylic acid, % (impurity) ([6]; month 3): 0.042%
- Salicylic acid, % (impurity) ([6]; month 3): 0.049%
- stability in solution (in words) ([6]; solution state): did not meet the general requirements for chemical drug stability
- CRI (%) [1, 9]: 0.0 ± 0.0%
- CRI (%) ([1]; 3% (m/V), 100 μL on left eyeball, 5 min after administration; mean ± SD; hydrochloride)): 99.1 ± 2.0%
- CRI (%) [1, 11]: 97.2 ± 2.9%
- CRI (%) [1, 12]: 96.7 ± 6.5%
- CRI (%) [1, 13]: 86.7 ± 9.8%
- CRI (%) [1, 14]: 77.5 ± 2.9%
- CRI (%) [1, 15]: 57.5 ± 12.2%
- CRI (%) [1, 16]: 12.2 ± 12.4%
- CRI (%) [1, 17]: 0.0 ± 0.0%
- local anesthetic effect (in words) [1, 18]: had a local anesthesia effect for ophthalmic administration, with quick onset

Structure (SMILES): CCN(CC)CC(=O)Nc1c(C)cccc1C [Lidocaine, lidocaine]
- IC50 [4]: 37.1 µM
- CRI (%) [1, 9]: 0.0 ± 0.0%
- CRI (%) [1, 10]: 98.3 ± 3.9%
- CRI (%) [1, 11]: 95.0 ± 10.0%
- CRI (%) [1, 12]: 91.7 ± 15.3%
- CRI (%) [1, 13]: 86.7 ± 21.0%
- CRI (%) [1, 14]: 82.5 ± 27.3%
- CRI (%) [1, 15]: 70.0 ± 27.3%
- CRI (%) [1, 16]: 32.5 ± 30.5%
- CRI (%) [1, 17]: 0.0 ± 0.0%
- IC50 (Nav1.7 [7]): 450 µM
- IC50 (Nav1.8 [8]): 104 µM

Structure (SMILES): O=C([O-])c1ccccc1O.[Na+] [Sodium salicylate, sodium salicylate]
- CRI (%) ([1]; rabbit, in vivo): 0.0±0.0%
- local anesthetic effect (in words) ([1]; rabbit, in vivo): no local anesthetic effect at all
